Assay results as given in the supplement of paper PMC10307832.

Tests used:
Assay in all cases: relative viability (nuclei count vs DMSO), 5 days (fraction); higher = more cells survive
[1] = compound: COC1=C(C=C(C=C1)C2=CC3=NC=CN3C(=N2)NC4=C(C=CC=N4)C(=O)N)OC [BAY61-3606] + C[C@@H](Oc1cc(-c2cnn(C3CCNCC3)c2)cnc1N)c1c(Cl)ccc(F)c1Cl [Crizotinib] (partner 1 µM)
Procedure, shortened: (§1)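 Medians of duplicate plates are given as relative viability. That measure is the nuclei count in treated wells divided by the count in vehicle wells. Counts were taken on 4× images of lung cancer cell lines in 1536-well plates, 5 days after pin-tool dosing the day after seeding with one drug alone or a fixed anchor-drug dose plus five library-drug doses (not always all listed) in √10 steps.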

[2] = compound: COc1cccc2c1C(=O)c1c(O)c3c(c(O)c1C2=O)C[C@@](O)(C(=O)CO)C[C@@H]3O[C@H]1C[C@H](N)[C@H](O)[C@H](C)O1 [Doxorubicin] + CC1(C)CCC(c2ccc(Cl)cc2)=C(CN2CCN(c3ccc(C(=O)NS(=O)(=O)c4ccc(N[C@H](CCN5CCOCC5)CSc5ccccc5)c(S(=O)(=O)C(F)(F)F)c4)cc3)CC2)C1 [Navitoclax] (partner 0.5 µM)
Procedure, shortened: as §1

[3] = compound: COc1cccc2c1C(=O)c1c(O)c3c(c(O)c1C2=O)C[C@@](O)(C(=O)CO)C[C@@H]3O[C@H]1C[C@H](N)[C@H](O)[C@H](C)O1 [Doxorubicin] + CCNC(=O)c1noc(-c2cc(C(C)C)c(O)cc2O)c1-c1ccc(CN2CCOCC2)cc1 [Luminespib] (partner 0.01 µM)
Procedure, shortened: as §1

[4] = compound: COc1cccc2c1C(=O)c1c(O)c3c(c(O)c1C2=O)C[C@@](O)(C(=O)CO)C[C@@H]3O[C@H]1C[C@H](N)[C@H](O)[C@H](C)O1 [Doxorubicin] + Cc1nc(Nc2ncc(C(=O)Nc3c(C)cccc3Cl)s2)cc(N2CCN(CCO)CC2)n1 [Dasatinib] (partner 0.075 µM)
Procedure, shortened: as §1

| Cell Line | relative viability ([1]; first compound 0.02 µM) | relative viability ([1]; first compound 0.06325 µM) | relative viability ([1]; first compound 0.2 µM) | relative viability ([1]; first compound 0.6325 µM) | relative viability ([1]; first compound 2 µM) | relative viability ([2]; first compound 0.001 µM) | relative viability ([2]; first compound 0.003162 µM) | relative viability ([2]; first compound 0.01 µM) | relative viability ([2]; first compound 0.03162 µM) | relative viability ([2]; first compound 0.1 µM) | relative viability ([3]; first compound 0.001 µM) | relative viability ([3]; first compound 0.003162 µM) | relative viability ([3]; first compound 0.01 µM) | relative viability ([3]; first compound 0.03162 µM) | relative viability ([3]; first compound 0.1 µM) | relative viability ([4]; first compound 0.001 µM) | relative viability ([4]; first compound 0.003162 µM) | relative viability ([4]; first compound 0.01 µM) | relative viability ([4]; first compound 0.03162 µM) | relative viability ([4]; first compound 0.1 µM) |
| --- | --- | --- | --- | --- | --- | --- | --- | --- | --- | --- | --- | --- | --- | --- | --- | --- | --- | --- | --- | --- |
| NCI-H2347 | 0.749 | 0.589 | 0.781 | 0.848 | 0.756 | 0.628 | 0.768 | 0.77 | 0.71 | 0.85 | 0.385 | 0.547 | 0.527 | 0.415 | 0.439 | 0.271 | 0.322 | 0.327 | 0.283 | 0.307 |
| NCI-H2405 | 0.856 | 0.787 | 0.764 | 0.849 | 0.661 |  | 0.779 | 0.851 | 0.639 | 0.493 | 0.572 | 0.701 | 0.778 | 0.599 | 0.6 | 0.187 | 0.208 | 0.243 | 0.207 | 0.177 |
| NCI-H3122 | 0.252 | 0.286 | 0.279 | 0.272 | 0.219 | 1.05 | 1.01 | 0.973 | 1.02 | 1.02 | 0.0793 | 0.117 | 0.102 | 0.0975 | 0.0943 | 0.684 | 0.837 | 0.735 | 0.291 | 0.928 |
| PC-3 [JPC-3] | 1.03 | 0.961 | 0.979 | 0.96 | 0.944 | 0.746 | 0.79 | 0.703 | 0.802 | 0.819 | 0.661 | 0.748 | 0.683 | 0.714 | 0.615 | 1.02 | 0.975 | 0.935 | 0.946 | 0.97 |
| PC-14 | 0.855 | 0.803 | 0.865 | 0.974 | 0.757 | 0.997 | 1.1 | 0.973 | 1.01 | 0.945 | 0.173 | 0.181 | 0.122 | 0.14 | 0.116 | 0.28 | 0.184 | 0.22 | 0.0983 | 0.0282 |
| RERF-LC-KJ | 0.826 | 0.777 | 0.817 | 0.819 | 0.785 | 1.05 | 0.765 | 1.12 |  | 1.05 | 1.32 | 1.21 | 0.838 | 0.323 | 0.308 | 0.85 | 0.83 | 0.706 | 0.318 | 0.278 |
| SK-LU-1 | 1.08 | 0.853 | 0.904 | 0.889 | 0.398 | 0.811 | 0.631 | 0.806 | 0.301 | 0.218 | 0.204 | 0.215 | 0.249 | 0.203 | 0.165 | 0.158 | 0.193 | 0.166 | 0.124 | 0.116 |
| SK-MES-1 | 1.01 | 0.971 | 0.962 | 0.966 | 0.876 | 1.28 | 0.745 | 1.09 | 1.01 | 0.76 | 0.771 | 0.618 | 0.487 | 0.199 | 0.151 | 0.458 | 0.396 | 0.325 | 0.141 | 0.128 |
| SW 1573 | 0.802 | 0.65 | 0.745 | 0.785 | 0.588 | 0.849 | 1.09 | 1.04 | 0.526 | 0.196 | 0.22 | 0.206 | 0.178 | 0.0908 | 0.0847 | 0.544 | 0.452 | 0.174 | 0.106 | 0.0634 |
